From publication PMC10982501, “Synthesis and biological evaluation of novel benzothiazole derivatives as potential anticancer and antiinflammatory agents” (Frontiers in Chemistry, 2024)

Assays:
A431 cells [1] = experiment: MTT cell proliferation assay, A431; format: cell-based, human; settings: for IC50 / inhibition at 10 µM: Homo sapiens, A-431, 48 h; for IC50: read-out: IC50 (mean ± SD) A431; for inhibition at 10 µM: read-out: A431 cells inhibition rate
Description: (§1) Beas-2b, A431, A549 and H1299 cells were cultured in 96-well plates (5 × 10^3 cells/well) for 16 h, respectively. Subsequently, positive compound 4i and 25 newly synthesized compounds were added at a final concentration of 10 μM or gradient concentrations (0.01, 0.1, 0.5, 1, 5 and 10 μM), co-incubated with the cells for 48 h. MTT (M8180, Solarbio) solutions (5 mg/mL) were then added and incubated for 4 h in the dark. Then, formazan crystals were dissolved with DMSO (D8371, Solarbio), followed by shaking on a shaker (DRAGONLAB, China) for 10 min. Finally, absorbance at 490 nm wavelength for each well was measured with Microplate reader (Molecular Devices, United States) ([Tang et al., 2020]; [Lee et al., 2021]). The results are expressed as mean ± SD from three independent experiments. Cells inhibition rates or IC50 values were calculated using GraphPad Prism 9.5.0.

H1299 cells = experiment: MTT cell proliferation assay, H1299; format: cell-based, human; settings: for IC50 / inhibition at 10 µM: Homo sapiens, NCI-H1299, 48 h; for IC50: read-out: IC50 (mean ± SD) H1299; for inhibition at 10 µM: read-out: H1299 cells inhibition rate
Description: as §1

A431 cells [2] = experiment: Flow cytometry analysis of cell cycle, A431; format: cell-based, human; settings: A431, 24 h
Description: (§2) The A431 and A549 cells were cultured in 6-well plates (1×10^5 cells/mL) for 16 h. Subsequently, they were treated with different concentrations (1, 2 and 4 μM) of either B7 or 4i (4 μM) for 24 h. Cells were collected, mixed by adding 75% ethanol with shaking on a vortex shaker, and placed in the refrigerator at 4°C for overnight fixation. The cells were incubated with PI-Raze solution for 15 min at room temperature, protected from light, according to the instructions of BD Cycletest Plus DNA Reagent Kit (340242, BD), and detected by FACS Calibur flow cytometry ([Oh et al., 2023]), and subsequent data analysis was performed using FlowJo 10.6.2.

[3] = test system: non-small cell lung cancer cell line HOP-92; design: method as in Noolvi et al., 2012; settings: ref Noolvi et al., 2012; cited from earlier work
A549 cells [4] = experiment: Flow cytometry analysis of cell cycle, A549; format: cell-based, human; settings: A549, 24 h
Description: as §2

A549 cells [5] = experiment: MTT cell proliferation assay, A549; format: cell-based, human; settings: for IC50 / inhibition at 10 µM: Homo sapiens, A549, 48 h; for IC50: read-out: IC50 (mean ± SD) A549; for inhibition at 10 µM: read-out: A549 cells inhibition rate
Description: as §1

TNF-α = experiment: ELISA of TNF-α in LPS-stimulated RAW264.7 cells; format: cell-based, mouse; settings: 10 μM, RAW264.7, LPS, 24 h, vs blank control
Description: (§3) RAW264.7 cells were cultured in 6-well plates (2×10^5 cells/well) for 24 h and treated with 25 newly synthesized compounds (final concentration at 10 μM) for 30 min, respectively. Subsequently, the cells were stimulated with 1 μL of LPS (500 ng/mL) (L8880, Solarbio). After 24 h, the supernatant was collected and analyzed using an ELISA kit (EK206 and EK182, MULTISCIENCES) to quantify the levels of inflammatory cytokines IL-6 and TNF-α ([Li et al., 2021]).

IL-6 = experiment: ELISA of IL-6 in LPS-stimulated RAW264.7 cells; format: cell-based, mouse; settings: 10 μM, RAW264.7, LPS, 24 h, vs blank control
Description: as §3

Beas-2b cells = experiment: MTT cell proliferation and toxicity assay, Beas-2b; format: cell-based, human; settings: Homo sapiens, BEAS-2B, 48 h, read-out: Beas-2b cells inhibition rate
Description: as §1

[6] = Oil-water partition coefficient (log P) measurement; format: physicochemical; settings: n-octanol/water, room temperature
Description: The partition coefficient between n-octanol and water (log Po/w) is the classical descriptor for Lipophilicity ([Daina et al., 2017]). The test methodology followed previously published protocols ([Wang et al., 2021]). At room temperature, two large Erlenmeyer flasks were taken and filled with n-octanol and water, respectively. The flasks were placed in a constant temperature shaker at 150 rpm for 24 h to saturate the solvents. The mixtures were then transferred to separating funnels under normal pressure to obtain water-saturated n-octanol and n-octanol-saturated water for subsequent use. The target compound (2 mg) was accurately weighed and placed in a 2 mL brown volumetric flask. Anhydrous methanol was added to ultrasonically dissolve the compound, and the mixture was diluted to volume and thoroughly shaken to prepare a 1 mg/mL stock solution. The stock solution was further diluted to obtain 1, 1.5, 2, 2.5, 5 and 10 μg/mL reference solutions for construction of a standard curve using a UV-visible spectrophotometer. An excess amount of the analyte was dissolved in water-saturated n-octanol, and the mixture was shaken at 150 rpm for 24 h at constant temperature to obtain a saturated solution. The saturated solution was allowed to stand, centrifuged, and 1 mL of the supernatant was transferred to a 4 mL centrifuge tube. N-octanol saturated water (1 mL) was added, and the mixture was shaken at 150 rpm for 24 h at constant temperature. After standing for 8 h, the mixture was centrifuged. Appropriate amounts of the n-octanol phase before and after equilibration were diluted with methanol, and concentrations were determined from the standard curve to obtain C0 and C1. The concentration in the n-octanol saturated aqueous phase, Cw, was calculated as Cw = C0 - C1. Thus, log Po/w = […].

A431 cells [7] = experiment: Flow cytometry analysis of cell apoptosis, A431; format: cell-based, human; settings: A431, 1, 2 and 4 μM, 24 h
Description: (§4) The A431 and A549 cells were cultured in 6-well plates (1×10^5 cells/mL) for 16 h. Subsequently, cells were treated with different concentrations (1, 2 and 4 μM) of either B7 or 4i for 24 h. Then, the cells were collected, washed, and stained with the FITC Annexin V Apoptosis Detection Kit I (556547, BD) ([Jiang et al., 2017]). Sample testing was performed using a FACS Calibur Flow Cytometer (BD, United States), and subsequent data analysis was performed using FlowJo 10.6.2.

A549 cells [8] = experiment: Wound healing analysis of cell migration, A549; format: cell-based, human; settings: A549, 4 μM, 48 h, compared to 4i
Description: (§5) The A431 and A549 cells were cultured in 6-well plates (5×10^5 cells/well). When the cell confluency reached approximately 90%, used a sterile 10 μL pipette tip to create three parallel scratches evenly. Subsequently, rinsed with PBS to remove floating cells, and then treated with B7 and 4i at final concentrations of 4 μM. Captured images using a microscope camera system (Nikon, JPN) at 0 and 48 h post-treatment ([Xu et al., 2023]).

A431 cells [9] = experiment: Wound healing analysis of cell migration, A431; format: cell-based, human; settings: A431, 4 μM, 48 h, compared to 4i
Description: as §5

ERK = experiment: Western blot, ERK phosphorylation; format: cell-based, human; settings: A431 and A549 cells, 1, 5 and 10 μM, 2 h
Description: (§6) The A431 and A549 cells were cultured in 6-well plates (2×10^5 cells/well) for 2 h and treated with different concentrations of B7(1, 5, and 10 μM) or 4i (10 μM). The corresponding cells were collected, washed with PBS (P1020, Solarbio), and lysed with RIPA buffer (R0010, Solarbio) to extract the total proteins. The extracted protein was loaded, subjected to SDS-PAGE electrophoresis (Bio-Rad) ([Xu et al., 2023]), and then the protein was transferred to a PDVF membrane (IPVH00010, Millipore) and incubated in the corresponding Primary Antibody AKT (9272, Cell Signaling Technology), phospho-AKT (4058, Cell Signaling Technology), ERK (A4782, ABclonal Technology), phospho-ERK (AP0974, ABclonal Technology) and GAPDH (AB0037, Abways Technology) overnight. Then, the Primary Antibody was recovered and enzyme-labeled secondary antibodies Goat Anti-Rabbit IgG HRP (H + L) (A0208, Beyotime Technology) were used. Finally, Imaging was performed on a gel Imaging System (Bio-Rad, United States) using the Ultra-sensitive ECL Chemiluminescence Assay Kit (P0018AS, Beyotime Technology).

A549 cells [10] = experiment: Flow cytometry analysis of cell apoptosis, A549; format: cell-based, human; settings: A549, 1, 2 and 4 μM, 24 h
Description: as §4

AKT = experiment: Western blot, AKT phosphorylation; format: cell-based, human; settings: A431 and A549 cells, 1, 5 and 10 μM, 2 h
Description: as §6

[11] = test system: common anti-tumor receptor kinases; experiment: Activity of common anti-tumor receptor kinases
human cancer cell lines = test system: human cancer cell lines; design: method as in Mortimer et al., 2006; settings: particularly non-small cell lung, colon and breast cancer lines; ref Mortimer et al., 2006; cited from earlier work

| Structure (SMILES) | IC50 (A431 cells [1]) | IC50 (H1299 cells) | IC50 (A549 cells [5]) | effect on TNF-α expression (TNF-α) | effect on IL-6 expression (IL-6) | inhibition at 10 µM (A431 cells [1]; 10 μM) | inhibition at 10 µM (Beas-2b cells) | inhibition at 10 µM (H1299 cells; 10 μM) | logP [6] | inhibition at 10 µM (A549 cells [5]; 10 μM) | further results |
| --- | --- | --- | --- | --- | --- | --- | --- | --- | --- | --- | --- |
| Clc1cccc(Cl)c1Nc1nc2cccc(Cl)c2s1 [4i, 7-chloro-N-(2,6-dichlorophenyl) benzo[d] thiazole-2-amine, reference compound] | 2000 ± 410 nM | 2480 ± 530 nM | 1090 ± 320 nM | – | – | – | – | – | – | – | cell cycle arrest, in words (A431 cells [2]): G2 phase cell cycle arrest effect; anticancer activity against HOP-92, in words [3]: promising anticancer activity; cell cycle arrest, in words (A549 cells [4]): G2 phase cell cycle arrest effect |
| CCOC(=O)COc1ccccc1-c1nc2ccccc2s1 [A1, Ethyl 2-(2-(benzo[d]thiazol-2-yl)phenoxy)acetate] | – | – | – | significant inhibitory effects | significant inhibitory effects | 45.6 ± 1.21% | 10.2 ± 0.92% | 49.5 ± 0.84% | 2.35 ± 0.21 | 42.3 ± 1.15% | – |
| O=[N+]([O-])c1ccc(CNc2nc3ccc(Cl)cc3s2)cc1 [B7, 6-chloro-N-(4-nitrobenzyl)benzo[d]thiazol-2-amine] | 1510 ± 200 nM | 1680 ± 120 nM | 960 ± 240 nM | significant inhibitory effects | significant inhibitory effects | – | 16.6 ± 1.36% | – | 3.25 ± 0.24 | – | apoptosis rate, in words (A431 cells [7]): gradual increase in the apoptosis rate; inhibitory effect on cell migration, in words (A549 cells [8]): stronger inhibitory effect; migration inhibitory effect, in words (A431 cells [9]): slightly surpassed that of 4i; ERK protein phosphorylation, in words (ERK): markedly inhibit; apoptosis rate, in words (A549 cells [10]): gradual increase in the apoptosis rate; AKT protein phosphorylation, in words (AKT): markedly inhibit; impact on common anti-tumor receptor kinases, in words [11]: minimal impact; cell cycle arrest, in words (A431 cells [2]): G2 phase cell cycle arrest effect; cell cycle arrest, in words (A549 cells [4]): G2 phase cell cycle arrest effect |
| O=C(Nc1nc2ccc(Cl)cc2s1)c1ccccc1 [C6, N-(6-chlorobenzo[d]thiazol-2-yl)benzamide] | 8400 ± 1060 nM | 9020 ± 370 nM | 8170 ± 400 nM | – | – | > 50% | 20.6 ± 0.52% | > 50% | 3.05 ± 0.17 | > 50% | A431 cells inhibition rate (A431 cells [1]; 10 μM, 48 h): 57.73 ± 2.12%; H1299 cells inhibition rate (H1299 cells; 10 μM, 48 h): 59.72 ± 1.84%; A549 cells inhibition rate (A549 cells [5]; 10 μM, 48 h): 55.56 ± 2.78% |
| O=C(Nc1nc2ccc(Cl)cc2s1)c1ccccc1F [C7, N-(6-chlorobenzo[d]thiazol-2-yl)-2-fluorobenzamide] | – | – | – | – | – | 40.4 ± 1.33% | 21.4 ± 2.25% | 48.28 ± 0.37% | 2.9 ± 0.32 | 44.6 ± 0.94% | – |
| COc1cc(CN(Cc2cc(OC)cc(OC)c2)c2nc3ccc(Cl)cc3s2)cc(OC)c1 [D1, 6-chloro-N,N-bis(3,5-dimethoxybenzyl)benzo[d]thiazol-2-amine] | – | – | – | – | – | 38.7 ± 1.56% | 19.3 ± 1.31% | 32.7 ± 1.25% | 5.69 ± 0.25 | 15.4 ± 3.46% | – |
| Clc1ccc2nc(N(Cc3ccccc3)Cc3ccccc3)sc2c1 [D2, N,N-dibenzyl-6-chlorobenzo[d]thiazol-2-amine] | – | – | – | significant inhibitory effects | significant inhibitory effects | 43.6 ± 1.39% | 24.3 ± 3.1% | 46.9 ± 2.71% | 5.82 ± 0.22 | 40.3 ± 1.06% | – |
| COc1ccc(-c2nc3cc(F)ccc3s2)cc1OC [PMX610, 2-(3,4-dimethoxyphenyl)-5-fluorobenzothiazole] | – | – | – | – | – | – | – | – | – | – | in vitro anti-tumor properties in human cancer cell lines, in words (human cancer cell lines): potent and selective in vitro anti-tumor properties |
